± gives the expanded uncertainty stated by the source.
Key:
[1] = refractive index (Na D-line) (dimensionless); conditions: 298.2 K; 101.33 kPa; Liquid; Standard Abbe refractometry
[2] = 298.2 K; 101.33 kPa; Liquid; Vibrating tube method

Row | refractive index [1] | mass density [2] [kg/m3] | SMILES
1 | 1.3977 ± 0.0008 | 952.68 ± 0.23 | CCCC(=O)O [butanoic acid]
2 | 1.4085 ± 0.0008 | 809.05 ± 0.4 | CC(C)CCO [3-methylbutan-1-ol]
3 | 1.4073 ± 0.0008 | 810.92 ± 0.24 | CCCCCO [pentan-1-ol]
4 | 1.3325 ± 0.0008 | – | O [water]

Row | SMILES | refractive index [1] | mass density [2] [kg/m3]
5 | CCCCO [butan-1-ol] | 1.3968 ± 0.0008 | 805.6 ± 0.24

— the NIST ThermoML archive (doi:10.1016/j.jct.2013.11.028)
